Laboratory results from PubChem BioAssay AID1919001 (Molecular Pharmacology Branch, DTP, NCI, 2023).
Values joined by “and” are separate entries in the source; they are usually repeats but may differ in a detail not shown here. Identical values can stand only once. Blank lines part the entries; values can stand above or below the molecule they belong to.

Test system: 699152-130-R-J1-PDC complex spheroid growth
Experiment: Anticancer human tumor 699152-130-R-J1-PDC patient-derived pancreatic carcinoma cell line growth inhibition [AhR]
Settings: for viability, T/C: stronger effect = lower value
In short: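 Agents were dosed in half-log steps down from roughly clinical Cmax, or from 10 microM where Cmax was unknown, alone and with AhR antagonists. Read-out: percent test/control growth of tumor spheroids containing HUVEC and MSC stromal cells.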

[1] = curve of first compound, second compound 0.1 µM
[2] = curve of first compound, second compound 0.316 µM
[3] = curve of first compound, second compound 1 µM
[4] = curve of first compound, second compound 3.16 µM
[5] = curve of first compound, second compound 10 µM
[6] = second compound 0.1 µM, first compound 0.00316 µM
[7] = second compound 0.1 µM, first compound 0.01 µM
[8] = second compound 0.1 µM, first compound 0.0316 µM
[9] = second compound 0.1 µM, first compound 0.1 µM
[10] = second compound 0.316 µM, first compound 0.00316 µM
[11] = second compound 0.316 µM, first compound 0.01 µM
[12] = second compound 0.316 µM, first compound 0.0316 µM
[13] = second compound 0.316 µM, first compound 0.1 µM
[14] = second compound 1 µM, first compound 0.00316 µM
[15] = second compound 1 µM, first compound 0.01 µM
[16] = second compound 1 µM, first compound 0.0316 µM
[17] = second compound 1 µM, first compound 0.1 µM
[18] = second compound 3.16 µM, first compound 0.00316 µM
[19] = second compound 3.16 µM, first compound 0.01 µM
[20] = second compound 3.16 µM, first compound 0.0316 µM
[21] = second compound 3.16 µM, first compound 0.1 µM
[22] = second compound 10 µM, first compound 0.00316 µM
[23] = second compound 10 µM, first compound 0.01 µM
[24] = second compound 10 µM, first compound 0.0316 µM
[25] = second compound 10 µM, first compound 0.1 µM
[26] = second compound 0.1 µM, first compound 0.316 µM
[27] = second compound 0.1 µM, first compound 1 µM
[28] = second compound 0.316 µM, first compound 0.316 µM
[29] = second compound 0.316 µM, first compound 1 µM
[30] = second compound 1 µM, first compound 0.316 µM
[31] = second compound 1 µM, first compound 1 µM
[32] = second compound 3.16 µM, first compound 0.316 µM
[33] = second compound 3.16 µM, first compound 1 µM
[34] = second compound 10 µM, first compound 0.316 µM
[35] = second compound 10 µM, first compound 1 µM
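Also: compound exposure lasted 7 days after spheroids had grown for 3 days.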

IC50 [1]: > 0.1 µM
IC50 [2]: > 0.1 µM
IC50 [3]: > 0.1 µM
IC50 [4]: > 0.1 µM
IC50 [5]: < 0.000316 µM
SMILES: CC[C@@]1(O)C(=O)OCc2c1cc1n(c2=O)Cc2cc3c(CN(C)C)c(O)ccc3nc2-1 + Cc1cncc(-c2nc(NCCc3c[nH]c4ccccc34)c3ncn(C(C)C)c3n2)c1
viability, T/C (second compound 0.1 µM, first compound 0.000316 µM): 102%
viability, T/C (second compound 0.1 µM, first compound 0.001 µM): 98.5%
viability, T/C [6]: 100%
viability, T/C [7]: 101%
viability, T/C [8]: 80.7%
viability, T/C [9]: 69.6%
viability, T/C (second compound 0.316 µM, first compound 0.000316 µM): 101%
viability, T/C (second compound 0.316 µM, first compound 0.001 µM): 98.4%
viability, T/C [10]: 98%
viability, T/C [11]: 93.9%
viability, T/C [12]: 80.3%
viability, T/C [13]: 66.5%
viability, T/C (second compound 1 µM, first compound 0.000316 µM): 105%
viability, T/C (second compound 1 µM, first compound 0.001 µM): 107%
viability, T/C [14]: 105%
viability, T/C [15]: 99.4%
viability, T/C [16]: 83.9%
viability, T/C [17]: 62.9%
viability, T/C (second compound 3.16 µM, first compound 0.000316 µM): 112%
viability, T/C (second compound 3.16 µM, first compound 0.001 µM): 92.8%
viability, T/C [18]: 95%
viability, T/C [19]: 93.7%
viability, T/C [20]: 64%
viability, T/C [21]: 54.7%
viability, T/C (second compound 10 µM, first compound 0.000316 µM): 12.6%
viability, T/C (second compound 10 µM, first compound 0.001 µM): 11.5%
viability, T/C [22]: 10.6%
viability, T/C [23]: 12.1%
viability, T/C [24]: 11.1%
viability, T/C [25]: 14.1%

IC50 [1]: > 1 µM
IC50 [2]: > 1 µM
IC50 [3]: > 1 µM
IC50 [4]: > 1 µM
IC50 [5]: > 1 µM
SMILES: Nc1ncn(C2CC(O)C(CO)O2)c(=O)n1 (stereo not drawn) + CC(CO)NC(=O)c1cc(-c2ccc(Cl)cc2)nn(-c2cnn(C)c2)c1=O
viability, T/C [6]: 90.2%
viability, T/C [7]: 100%
viability, T/C [8]: 97%
viability, T/C [9]: 102%
viability, T/C [26]: 96.9%
viability, T/C [27]: 93.3%
viability, T/C [10]: 89.5%
viability, T/C [11]: 100%
viability, T/C [12]: 86.7%
viability, T/C [13]: 87.2%
viability, T/C [28]: 87.8%
viability, T/C [29]: 72.2%
viability, T/C [14]: 112%
viability, T/C [15]: 103%
viability, T/C [16]: 107%
viability, T/C [17]: 87.7%
viability, T/C [30]: 77.7%
viability, T/C [31]: 82.3%
viability, T/C [18]: 75.4%
viability, T/C [19]: 87.6%
viability, T/C [20]: 82.2%
viability, T/C [21]: 82.1%
viability, T/C [32]: 81%
viability, T/C [33]: 70%
viability, T/C [22]: 85.8%
viability, T/C [23]: 85.3%
viability, T/C [24]: 79.9%
viability, T/C [25]: 70%
viability, T/C [34]: 66.6%
viability, T/C [35]: 77.1%

IC50 (curve of compound): 7.13 µM and 7.65 µM and 8.49 µM
SMILES: Nc1ccccc1NC(=O)c1ccc(CNC(=O)OCc2cccnc2)cc1
viability, T/C (compound 0.0316 µM): 91.4% and 87.2% and 106%
viability, T/C (compound 0.1 µM): 96.6% and 89.1% and 109%
viability, T/C (compound 0.316 µM): 96.1% and 93.6% and 116%
viability, T/C (compound 1 µM): 97.1% and 103% and 95%
viability, T/C (compound 3.16 µM): 76.1% and 86% and 93.4%
viability, T/C (compound 10 µM): 39.1% and 38.4% and 42.8%

IC50 [1]: > 0.3 µM
IC50 [2]: > 0.3 µM
IC50 [3]: > 0.3 µM
IC50 [4]: > 0.3 µM
IC50 [5]: > 0.3 µM
SMILES: Nc1ncn(C2CC(O)C(CO)S2)c(=O)n1 (stereo not drawn) + Cc1ccccc1N=Nc1ccc(NC(=O)c2ccnn2C)c(C)c1
viability, T/C (second compound 0.1 µM, first compound 0.000949 µM): 99.6%
viability, T/C (second compound 0.1 µM, first compound 0.003 µM): 98.9%
viability, T/C (second compound 0.1 µM, first compound 0.00949 µM): 99%
viability, T/C (second compound 0.1 µM, first compound 0.03 µM): 95.5%
viability, T/C (second compound 0.1 µM, first compound 0.0949 µM): 102%
viability, T/C (second compound 0.1 µM, first compound 0.3 µM): 102%
viability, T/C (second compound 0.316 µM, first compound 0.000949 µM): 101%
viability, T/C (second compound 0.316 µM, first compound 0.003 µM): 105%
viability, T/C (second compound 0.316 µM, first compound 0.00949 µM): 95.3%
viability, T/C (second compound 0.316 µM, first compound 0.03 µM): 105%
viability, T/C (second compound 0.316 µM, first compound 0.0949 µM): 103%
viability, T/C (second compound 0.316 µM, first compound 0.3 µM): 90.4%
viability, T/C (second compound 1 µM, first compound 0.000949 µM): 101%
viability, T/C (second compound 1 µM, first compound 0.003 µM): 101%
viability, T/C (second compound 1 µM, first compound 0.00949 µM): 103%
viability, T/C (second compound 1 µM, first compound 0.03 µM): 107%
viability, T/C (second compound 1 µM, first compound 0.0949 µM): 103%
viability, T/C (second compound 1 µM, first compound 0.3 µM): 89.8%
viability, T/C (second compound 3.16 µM, first compound 0.000949 µM): 90.2%
viability, T/C (second compound 3.16 µM, first compound 0.003 µM): 99%
viability, T/C (second compound 3.16 µM, first compound 0.00949 µM): 104%
viability, T/C (second compound 3.16 µM, first compound 0.03 µM): 101%
viability, T/C (second compound 3.16 µM, first compound 0.0949 µM): 100%
viability, T/C (second compound 3.16 µM, first compound 0.3 µM): 95.3%
viability, T/C (second compound 10 µM, first compound 0.000949 µM): 114%
viability, T/C (second compound 10 µM, first compound 0.003 µM): 116%
viability, T/C (second compound 10 µM, first compound 0.00949 µM): 122%
viability, T/C (second compound 10 µM, first compound 0.03 µM): 111%
viability, T/C (second compound 10 µM, first compound 0.0949 µM): 114%
viability, T/C (second compound 10 µM, first compound 0.3 µM): 107%

IC50 [1]: > 10 µM
IC50 [2]: 4.1 µM
IC50 [3]: > 10 µM
IC50 [4]: 7.2 µM
IC50 [5]: > 10 µM
SMILES: COc1cc(C2c3cc4c(cc3C(OC3OC5COC(C)OC5C(O)C3O)C3COC(=O)C23)OCO4)cc(OC)c1O (stereo not drawn) + Cc1ccccc1N=Nc1ccc(NC(=O)c2ccnn2C)c(C)c1
viability, T/C [8]: 96.8%
viability, T/C [9]: 117%
viability, T/C [26]: 74.5%
viability, T/C [27]: 62.5%
viability, T/C (second compound 0.1 µM, first compound 3.16 µM): 48.2%
viability, T/C (second compound 0.1 µM, first compound 10 µM): 48.2%
viability, T/C [12]: 95.9%
viability, T/C [13]: 88.8%
viability, T/C [28]: 66.2%
viability, T/C [29]: 62.1%
viability, T/C (second compound 0.316 µM, first compound 3.16 µM): 53.6%
viability, T/C (second compound 0.316 µM, first compound 10 µM): 43.4%
viability, T/C [16]: 104%
viability, T/C [17]: 106%
viability, T/C [30]: 81%
viability, T/C [31]: 62.1%
viability, T/C (second compound 1 µM, first compound 3.16 µM): 60.6%
viability, T/C (second compound 1 µM, first compound 10 µM): 50.5%
viability, T/C [20]: 108%
viability, T/C [21]: 89.4%
viability, T/C [32]: 65.4%
viability, T/C [33]: 62.5%
viability, T/C (second compound 3.16 µM, first compound 3.16 µM): 54.4%
viability, T/C (second compound 3.16 µM, first compound 10 µM): 47.3%
viability, T/C [24]: 106%
viability, T/C [25]: 88.7%
viability, T/C [34]: 55%
viability, T/C [35]: 65.1%
viability, T/C (second compound 10 µM, first compound 3.16 µM): 65.1%
viability, T/C (second compound 10 µM, first compound 10 µM): 57.1%

IC50 (compound alone, run of 07/26/2022): > 10 µM
SMILES: Cc1ccccc1N=Nc1ccc(NC(=O)c2ccnn2C)c(C)c1
